The test concerns retinal ganglion cells. Kind of test: Optic nerve injury model ("optic crush" model), retinal ganglion cell survival. The class given is in vivo. The following applies: male mice, intraocular injection following optic nerve injury, 14 days after injury, compared with PBS control; difference statistically significant (FIG. 1). Here is the method: A PDE1 inhibitory compound was tested in an optic nerve injury model (i.e., the “optic crush” model). The studies described below were carried out using the selective PDE1 inhibitor IC200041, which has the following structure:
In this model, optic nerve surgeries were performed on male mice 8 weeks of age (average body weight, 20-26 g) under general anesthesia, as described previously (Yin Y, et al., Oncomodulin links inflammation to optic nerve regeneration. Proc Natl Acad Sci USA. 2009; 106:19587-19592). Following nerve injury, 3 μl of fluid was removed from the eye and a solution containing the PDE1 inhibitory compound was injected intraocularly.
A total of 4 mouse retinas were treated with the PDE1 inhibitor, and phosphate buffered saline (PBS) was administered to a total of 10 mouse retinas as a control. Mice were typically euthanized with an overdose of anesthesia 14 days after optic nerve injury and were perfused with saline and 4% paraformaldehyde (PFA). These mice were 10 weeks old when killed. Optic nerves and eyes were dissected and postfixed in PFA. […] Axons were counted manually in at least 8 longitudinal sections per case at pre-specified distances from the injury site, and these numbers were converted into the number of regenerating axons at various distances.

This note sets out measurements from patent publication US11628171B2, “Method for treating brain or nerve injury” (CHILDREN'S MEDICAL CENTER CORPORATION, priority 2019, dated 2023).

Turning to `CN1C(=O)c2c(nn(Cc3ccc(-c4ccccn4)cc3)c2Nc2ccccc2)N2C1=N[C@@H]1CCC[C@@H]12` [IC200041], the “survival of retinal ganglion cells” value is on record as “highly effective in increasing the survival of retinal ganglion cells”.
